From US5855906A, “Intravaginal drug delivery devices for the administration of 17β-oestradiol precursors” (priority 1994, dated 1999)
Converted amounts (≈) assume the structure as drawn. “Also recorded” adds a separate entry of the source. Where two headings read alike, the source gives them in different places.

Experiments:
[1] = Plasma 17β-oestradiol in post-menopausal women with 60 μg intravaginal ring, 14 days (Example 10); details: 60 μg ring, over 14 days
[2] = Silicone solubility at 37 °C in Dow Corning 360 medical fluid; type: physicochemical; details: organic solvent or mixture, Dow Corning 360 medical fluid, 37 °C, read-out: Silicone solubility
Experimental: Silicone solubility was determined at 37° C. in Dow Corning (Trade Mark) 360 medical fluid.

in vitro = details: human, blood
[3] = In vitro dissolution: mean daily release from full-length-core rings over up to 90 days in three media; type: physicochemical; details: for Mean Daily Release: 9 × 54 mm ring, core 141 × 2 mm, 37 °C, N = 4
From the text: In all cases the ring geometries comprise a ring of dimensions 9 mm (cross-sectional diameter)×54 mm (outer diameter) and containing a full length core (141 mm) of cross-sectional diameter 2 mm. […] The saline and benzalkonium chloride-containing media were chosen to ensure `sink conditions` in at least one medium for each intravaginal ring. It will be recognised by those skilled in the art that the term `sink conditions` refers to that set of experimental conditions in vitro which effectively simulates the active haemoperfusion that occurs in vivo, and which results in a maximum drug concentration gradient and maximum drug diffusion rate, at any given time, across the aqueous boundary layer. Thus, an in vitro dissolution experiment can be designed such that the solution solubility of the released drug in the dissolution medium is much greater than its bulk concentration in this medium at any given time, for example, by micellar drug solubilisation due to incorporation of a surfactant such as benzalkonium chloride (BKC), at a concentration above its critical micelle concentration. Thus, each ring was suspended by a thread in an individual closed flask containing the dissolution medium, maintained at a constant temperature of 37° C. The contents of the flask were gently agitated in order to prevent the occurrence of a hydrostatic layer on the surface of the ring. After 24 hours, the ring was removed and suspended in a flask of fresh dissolution medium of identical volume by a method identical to that previously described.

[4] = Stability during storage (observed in dissolution samples); details: dissolution medium samples
[5] = Nominal in vitro daily release from intravaginal rings under sink conditions (1% w/v benzalkonium chloride, 37 °C); type: physicochemical; details: calculated as anhydrous 17β-oestradiol
Experimental: The nominal in vitro release rates set out in Table 1 for the rings of Examples 1-5 were determined under sink conditions of 1% (w/v) benzalkonium chloride. These release rates were determined in the following manner.
Each ring (n=4) was suspended in the dissolution medium in an individual flask which is then capped, placed in a suitable oven at 37° C. and shaken. The dissolution medium was changed every 24 hours (±30 minutes). An aliquot of the used dissolution medium was analysed by high performance liquid chromatography (HPLC) using reverse phase packing and UV detection (at 235 nm for 17β-oestradiol-3-acetate and for
. The sensitivity of the original and improved analytical methods is 5 μg/100 ml.

[6] = Aqueous solubility in distilled water at 20 °C; details: water
[7] = In vitro release from rings of varying core length and apparent/standard k value (Crank's equation); type: physicochemical; set-up: Standard k: unit not given here; details: for k: in µg/day/mm; for Mean Daily Release (as precursor): 250 ml 1% (w/v) BKC
From the text: Precursor release from a cylindrical device of core design, which comprises a polymer matrix in the form of a core incorporating 17β-oestradiol precursor and a sheath surrounding the core, can be described by Crank's equation: [formula] in which R=precursor release rate (μg/day)
Crank's equation relates the precursor release rate (R), in sink conditions, to the solubility (C2 S) and diffusibility (D) of the precursor in the polymer matrix, its partition characteristics (π) between the polymer matrix and the dissolution medium; and the ring dimensions (l, b, a). For any given precursor in any given polymer matrix, CS, D and π will be constant and can be grouped together to form the composite constant, k:
The k value can be empirically derived using Crank's equation in the following manner: [formula]
The k value is dependent on core length for certain of the 17β-oestradiol precursors (see Example 6 hereinafter). Accordingly, the k value at a core length of 35 mm has been denoted "standard k" value hereinafter.
Intravaginal drug delivery devices in the form of rings were prepared, each with a ring geometry as described in Table 3, by following the General Method of Manufacture set out hereinabove.
The dissolution medium was changed daily, following the protocol set out hereinabove. Mean daily release rates from the second week of dissolution experiments were used to determine the apparent k values presented in Table 3.
It was, therefore, decided to determine k values at a core length of 35 mm and such k values are hereinafter referred to as "standard k" values.
The standard k value was determined from the mean daily release rates observed in Example 6. The dissolution medium of 1.0% (w/v) of an aqueous solution of benzalkonium chloride was used in respect of the various 17β-oestradiol precursors, so as to ensure sink conditions.

[8] = shell ring, 58 mm × 9.5 mm; cited from earlier work
[9] = shell ring; cited from earlier work
[10] = cited from earlier work
[11] = 17β-oestradiol ring; EP 0 253 109 0.5 to 25 μg per day; Smith et al 5 to 10 μg per day; cited from earlier work
[12] = non-oral preparations, read-out: plasma levels of 17β-oestradiol, cited from earlier work

## CC(=O)Oc1ccc2c(c1)CC[C@@H]1[C@@H]2CC[C@]2(C)[C@@H](O)CC[C@@H]12 [17β-oestradiol-3-acetate]
[1]
  mean increase in plasma 17β-oestradiol: 117.98 pmol/L
[2]
  solubility: 186 µg/mL (≈ 592 µM)
In vitro
  half-life: < 1 min
[3]; 0.133% (w/v) BKC
  Mean Daily Release: 700 μg per day
[3]; 0.9% (w/v) saline
  Mean Daily Release: 350 μg per day
[3]; 1.0% (w/v) BKC
  Mean Daily Release: 850 μg per day
[3]; BKC and saline media, ring geometry of Table 2
  release in vitro from intravaginal rings (in words): substantial release, in both BKC and in saline
[4]
  stability during storage: hydrolysis to 17β-oestradiol during storage
[5]; "60 μg" ring, core 2×12 mm
  nominal in vitro daily release rate: 57.5 to 62.5 µg
[5]; "120 μg" ring, core 2×24 mm
  nominal in vitro daily release rate: 115 to 125 µg
[5]; "240 μg" ring, core 2×47 mm
  nominal in vitro daily release rate: 230 to 250 µg
[6]
  solubility: 3.8 µg/mL (≈ 12.1 µM)
[7]; Table 3 rings, 1% (w/v) BKC
  apparent k value versus core length: varies with core length
[7]; Table 4, 1.0% (w/v) BKC, core length 35 mm, n = 5
  Mean Daily Release: 236.66 µg/day
[7]; Table 4, core length 35 mm, 1.0% (w/v) BKC
  Standard k: 10.017
[7]; Table 5, core length 35 mm
  k (standard k): 10.017 μg/day/mm
[7]; core length 6 mm, 1% (w/v) BKC
  k: 12.347
[7]; core length 6 mm, n = 5
  Mean Daily Release (as precursor): 49.25 µg/day
[7]; core length 12 mm, 1% (w/v) BKC
  k: 11.517
[7]; core length 12 mm, n = 5
  Mean Daily Release (as precursor): 91.88 µg/day
[7]; core length 25 mm, 1% (w/v) BKC
  k: 10.658
[7]; core length 25 mm, n = 5
  Mean Daily Release (as precursor): 177.15 µg/day
[7]; core length 35 mm, 1% (w/v) BKC
  k: 10.017
[7]; core length 35 mm, n = 5
  Mean Daily Release (as precursor): 236.66 µg/day

## C[C@]12CC[C@@H]3c4ccc(O)cc4CC[C@H]3[C@@H]1CC[C@@H]2O [17β-oestradiol]
[8]
  daily release: 180 μg per day
[9]
  in vitro release rate of 17β-oestradiol: 200 μg per day
[3]; 0.9% (w/v) saline
  Mean Daily Release: 8 μg per day
[10]; homogeneous ring 400 mg, within one hour, 60 min
  initial serum 17β-oestradiol level: about 700 pg/ml
[10]; shell ring (100, 200 or 400 mg), one hour after insertion, 60 min
  mean serum 17β-oestradiol: 300 pg/mL
[10]; shell ring, baseline 24 pg/ml
  mean serum 17β-oestradiol (in words): approached the baseline level of 24 pg/ml within 24 hours; also recorded: falling back to the baseline at 2 and 3 months
[7]; Table 5, core of 141 mm length
  k (using core of 141 mm length): 0.09 μg/day/mm
[11]
  alleviation of symptoms of hypo-oestrogenism (in words): symptoms in the human female arising from a hypo-oestrogenic condition can be alleviated; also recorded: effective at alleviating those symptoms associated with hypo-oestrogenism that relate specifically to atrophy of vaginal and urethral epithelium
[12]; transdermal 50 μg per day (low dose)
  concentration: ~0.2 nM
[12]; transdermal 100 μg per day (high dose)
  concentration: ~0.36 nM
